These results are taken from patent US10875861B1, “Therapeutic compounds” (Rutgers, The State University of New Jersey, priority 2017, dated 2020).

Structures can show the parent of a compound that is named as a salt.

The test system of one assay is BMI-1 and αENaC mRNA. Nature of the assay: mRNA expression of BMI-1 and αENaC on concomitant treatment with cyclohexamide. The assay is classed as cell-based. The conditions noted are these: RU-A15 100 nM, RU-A16 200 nM, concomitant with CHX. On the procedure: Next, to test if Examples 3 and 4 are selective for BMI-1 RNA, cells were concomitantly treated with RU-A15/16 (100 nM, 200 nM, respectively) and cyclohexamide (CHX), a general translational inhibitor, and analyzed mRNA expression of BMI-1 and the CHX-specific target epithelial sodium channel (αENaC).

Assay [1] relates to BMI-1 and ubiquitinated histone H2A in primary glioblastoma cells. Nature of the assay: Modulation / dynamics of BMI-1 and downstream targets in GBM cells (Western blotting). The assay is classed as cell-based, human. On the procedure: Different GBM cells were treated with DMSO or different concentrations of the B compounds for 72 hours. Cells were lysed in Cell Lysis Buffer (Cell Signaling, #9803) supplemented with Protease Inhibitor Cocktail (Sigma, #P8340), spun down for 30 minutes at 4° C., after which the supernatant was collected at every time point indicated. Western blotting analysis was performed on all samples as described above. BMI-1 loss started at 6-12 h, coinciding with an upper shift and hyper-phosphorylation of BMI-1 at 12-24 h and complete depletion at 72 h.
To study the compound dynamic activity against GBM spheres, GBMs were tested with exemplary compounds. Different GBM cells were treated with DMSO or different concentrations of the inhibitors for 72 hours. Cells were lysed in Cell Lysis Buffer (Cell Signaling, #9803) supplemented with Protease Inhibitor Cocktail (Sigma, #P8340), spun down for 30 minutes at 4° C., after which the supernatant was collected at every time point indicated. Western blotting analysis was performed on all samples as described above. […] BMI-1 loss started at 6-12 h, coinciding with an upper shift and hyper-phosphorylation of BMI-1 at 12-24 h and complete depletion at 72 h. […] This is expected since BMI-1 is known to suppress p21. BMI-1 inhibition could be reversed using phosphatase treatment, moreover, when proteasomal inhibitor is added to treated cells after 24 h, BMI-1 is locked in the phosphorylated state, therefore showing that the phosphorylation event precedes BMI-1 degradation. The phosphorylation was independent of p38 kinase activation, as when we added […], the p38 inhibitor to the cultured cells upon treatment with the BMI-1 inhibitor, the combined treatment could not reverse the effects of RU-A15 on BMI-1 inhibition.
In general terms: In western blotting, separated proteins are transferred to a membrane and probed.

In a further assay the test system is BMI-1 5'UTR. Kind of assay: Luciferase plasmid containing the BMI-1 5'UTR with or without binding pocket. The assay is classed as cell-based. As for the experimental part:
Since translation initiation is dependent on RNA folding, the 3D folding of the BMI-1 5′UTR was examined. To identify sequences that fold into a target minimum and maximum free energy (MFE) secondary structure, inverse RNA folding of the BMI-1 5′UTR was performed using the mFold server. A highly probable, probability annotated group of secondary structures were identified, starting with the MFE, centroid energy structures and including fourteen other probabilities. […] In a luciferase plasmid containing the BMI-1 5′UTR, the sequences of the pocket region that contains the potential binding site was removed by cutting with compatible restriction enzymes and re-ligating the plasmid. The luciferase activity was examined with the luc plasmids or without the binding pocket upon treatment with the inhibitors. […] Thus, RU-A15/A16 engages with the BMI-1 UTR regulatory mechanisms.

The test system of assay [2] is glioblastoma cancer cell line. Kind of assay: MTT viability assay with glioblastoma cancer cell line (Test A). The assay is classed as cell-based, human. The conditions noted are these: for EC50: Homo sapiens, 72 hours. The text has this:
To generate primary patient-derived GBM models for testing small molecule inhibitors, fresh primary tissues were received from patients undergoing surgical resection of WHO grade IV gliomas at Robert Wood Johnson University Hospital (RWJUH) under an approved IRB protocol. De-identified primary human GBM samples were delivered to the laboratory. Cells were obtained through mechanical dissociation of the tumor tissue using a blade and plated in DMEM/F12 medium (Gibco) in the presence of B-27 Supplement (Gibco, #17504-044), 20 ng/ml of human recombinant EGF (Gibco, #PHG0311L) and human recombinant FGF (Peprotech, #AF-100-18B). The following day, the culture was collected, incubated with Accutase (Gibco, #A11105-01) at 37° C. and passed through a 26G×⅜ needle (BD Precision Glide, #305110) to obtain a single cell suspension and re-plated in the same supplemented medium. Cells were cultured at low (5-6) passages in serum-free sphere 3D culture with mitogens that preserve the clonogenic stemness phenotype. […] different primary GBM cells (GBM #46, GBM #50, and GBM #76) were tested for cell viability after treatment with the inhibitors. Cell viability was measured using MTT assay. Briefly, one thousand cells per well were seeded in 96-well plates and exposed to drug in a total of 200 uL media. After 72 hours, 50 uL of stock concentration of 2.5 mg/mL 3-(4,5-dimethylthiazol-2-yl)-2,5-diphenyltetrazolium bromide (MTT) (Sigma, #M2128) dissolved in PBS was added to wells and incubated at 37° C. for 4 hours; read in a […] plate reader at 570 nm and compared to DMSO and untreated cells. The IC50 (defined as the concentration at which 50% of the cells were viable) was determined from the curve.
Accordingly, compounds of the invention may be useful as therapeutic agents for the treatment of cancer.
To generate primary patient-derived GBM models for testing small molecule inhibitors, fresh primary tissues were received from patients undergoing surgical resection of WHO grade IV gliomas at Robert Wood Johnson University Hospital (RWJUH) under an approved RB protocol. De-identified primary human GBM samples were delivered to the laboratory. Cells were obtained through mechanical dissociation of the tumor tissue using a blade and plated in DMEM/F12 medium (Gibco) in the presence of B-27 Supplement (Gibco, #17504-044), 20 ng/ml of human recombinant EGF (Gibco, #PHG0311L) and human recombinant FGF (Peprotech, #AF-100-18B). […] Cell viability was measured using MTT assay. […] After 72 hours, 50 uL of stock concentration of 2.5 mg/mL 3-(4,5-dimethylthiazol-2-yl)-2,5-diphenyltetrazolium bromide (MTT) (Sigma, #M2128) dissolved in PBS was added to wells and incubated at 37° C. for 4 hours; read in a […] plate reader at 570 nm and compared to DMSO and untreated cells. […]

For another assay, the system named is U87 glioblastoma cells. Nature of the assay: Comparison of Example 3 and PTC-209 in U87 glioblastoma cells (cell viability). The assay is classed as cell-based. The conditions noted are these: 72 hours. The text has this:
BMI-1 inhibitors were developed by the Molecular Design and Synthesis laboratory, Rutgers Translational Sciences at Rutgers University, NJ, USA. […] (Generic name is PTC-209) was characterized among a screen for post-transcriptional inhibitors of BMI-1. Zebrafish embryo toxicology assays were used to select RU-A compounds with no embryonic toxicity in vivo (a surrogate assay for toxic effects on normal stem cells). […] Cells were counted using Beckman Coulter Vi-CELL Cell Viability Analyzer, and cell viability was confirmed by CellTiter-Glo Luminescent Cell Viability Assay (Promega, Madison, Wis., USA) according to standard protocols and analyzed with a Victor 2 plate reader (Wallac, Turku, Finland).

The mark [3] stands for this setting: primary glioblastoma cells, Western blotting.

For `C[C@@H]1C[C@@H]([C@H](O)CC2CC(=O)NC(=O)C2)C(=O)[C@@H](C)C1` [CHX, cyclohexamide, reference compound], in the assay on BMI-1 and αENaC mRNA, the “BMI-1 mRNA expression” value is “lowered mRNA levels” and the “αENaC mRNA expression” value is on record as “lowered mRNA levels”.
As for `Cc1nc2ccccn2c1-c1csc(Nc2ccc3c(c2)OCO3)n1` [Example 4, N-(benzo[d][1,3]dioxol-5-yl)-4-(2-methylimidazo[1,2-a]pyridin-3-yl)thiazol-2-amine hydrobromide], in assay [1] (GBM#46 and #50), the “CDK inhibitor p21” value is “induced upregulation of the CDK inhibitor p21”. Also, in assay [1] (setting [3]), the BMI-1 protein levels result was “inhibit BMI-1”, the “WT p53 levels” value was “increase WT p53 levels” and the “ubiquitin H2A” value was “inhibit ubiquitin H2A”. The “normalized luc, BMI-1 5'UTR with intact binding pocket” value in the assay on BMI-1 5'UTR (intact minor groove potential binding pocket) is “significantly reduced normalized luc”. Moreover, the “normalized luc, binding pocket sequences removed” value with BMI-1 5'UTR (pocket sequences removed) is reported as “not when the pocket sequences were removed”. Besides, in the assay with BMI-1 and αENaC mRNA, the “BMI-1 mRNA expression” value was “did not inhibit” and the “αENaC mRNA expression” value is “did not inhibit”.
Consider `Cc1c(-c2csc(Nc3ccc(N(C)C)cc3)n2)nc2ncccn12` [Example B2, N^1,N^1-dimethyl-N^4-(4-(3-methylimidazo[1,2-a]pyrimidin-2-yl)thiazol-2-yl)benzene-1,4-diamine], for which, in assay [2], the midpoint of the response, the EC50, lay at 1 µM. In addition, the “modulation of ubiquitinated histone H2A (Test B)” value in assay [1] (GBM cells, B compounds, 72 hours) is “modulation of downstream target ubiquitinated histone H2A”.
Turning to `COc1ccc(Nc2nc(-c3nc4ccccn4c3C)cs2)cc1` [Example B3, N-(4-methoxyphenyl)-4-(3-methylimidazo[1,2-a]pyridin-2-yl)thiazol-2-amine], the EC50 (as a rule, the concentration needed to bring the measured effect to its halfway point) in assay [2] came out at 20 µM.
`Cc1c(-c2csc(Nc3ccc(N(C)C)cc3)n2)nc2ccccn12` [Example B4, N^1,N^1-dimethyl-N^4-(4-(3-methylimidazo[1,2-a]pyridin-2-yl)thiazol-2-yl)benzene-1,4-diamine]: the EC80 in assay [2] (cell marked (EC80) in the EC50 column) was 20 (EC80) μM.
In the case of `COc1cc(Br)c(Nc2nc(-c3c(C)nc4ncccn34)cs2)c(Br)c1` [PTC-209, reference compound], the IC50 (usually the midpoint of a concentration-inhibition curve) in the assay with U87 glioblastoma cells was 10 µM.
